# In patent US20190345121A1, “PYRENE-BASED COMPOUNDS FOR INTRACELLULAR ORGANELLE IMAGING APPLICATIONS” (priority 2018, published 2019):
# Tests used:
# DNA = assay: Fluorescence titration with DNA in PBS buffer; type: binding; conditions: PBS buffer pH=7.4, DNA <25 μg mL^−1
# Description: The pyrene segment of the pyrene-based compounds having a pyridinium group of the present invention is thought to play an important role in the interaction of probes made with the pyrene-based compounds having a pyridinium group of the present invention with DNA, as planar aromatic compounds are usually regarded as DNA intercalators. In order to shed some light on the interaction between probes made from the pyrene-based compounds having a pyridinium group of the present invention and DNA, fluorescence spectra were acquired when DNA was added into probes made from the pyrene-based compounds having a pyridinium group of the present invention in a PBS buffer solution (pH=7.4). […] Therefore, the initial fluorescence quenching was attributed to the interaction between probes made from the pyrene-based compounds having a pyridinium group of the present invention and DNA, possibly involving insertion of dye molecules into DNA groves.
# [1] = in the presence of DNA in Tris buffer; cited from earlier work
# A549 cells = assay: Long-term imaging ability; type: cell-based, human
# Description: For the long-term imaging ability assessment aspect of the experiment, a Zeiss LSM 710 fluorescence confocal microscope with identical settings were used for photostability comparisons of the probes (561 nm (15 mW) laser line; Laser power percentage 1.0; Digital zoom=1; Pinhole=1A U; Master Gain=500; Digital offset=0). Different imaging plates with A549 cells were incubated for 30 minutes at […] with probes made using solutions of the pyrene-based compounds having a benzothiazolium group of the present invention as well as with probes made from LysoTracker® Red DND-99. Fluorescence confocal microscopy images were obtained at 30-minute intervals (identical fluorescence microscopy settings were used during the experiments). ImageJ (NIH) software was used to analyze the obtained images and average relative fluorescence intensity was plotted as a function of time.
# The lack of cellular pH perturbation, in addition to its low toxicity, raised the possibility of using the pyrene-based compounds having a benzothiazolium group of the present invention for long term lysosome imaging. Thus, A549 cells were treated with a pyrene-based compound having a benzothiazolium group of the present invention (500 nM) over a period of 6 hours, which gave stable fluorescent confocal microscopy images as shown in FIG. 4A. […]
SMILES,fluorescence change on initial addition of DNA (DNA),fluorescence quantum yield ϕfl [1],cell morphology during long-term imaging (A549 cells; after 1.5 hours),average fluorescence intensity vs. staining time (A549 cells; images every 30 minutes)
CN(C)CCNc1ccc(O)c2c1C(=O)c1c(O)ccc(NCCN(C)C)c1C2=O [DRAQ5],partial fluorescence quenching,about 0.003,–,–
CN(C)CCNC(=O)CCc1ccc2n1[B-](F)(F)[N+]1=C(c3ccc[nH]3)C=CC1=C2 [LysoTracker® Red DND-99],–,–,significant morphological changes and notable cell shrinkage,significant decrease in relative intensity
